Assay results: article PMC6718313 (European journal of medicinal chemistry, 2019)

Target: T1, ABCG2 (Homo sapiens, UniProt Q9UNQ0)
T1 sequence (Q9UNQ0 1-655): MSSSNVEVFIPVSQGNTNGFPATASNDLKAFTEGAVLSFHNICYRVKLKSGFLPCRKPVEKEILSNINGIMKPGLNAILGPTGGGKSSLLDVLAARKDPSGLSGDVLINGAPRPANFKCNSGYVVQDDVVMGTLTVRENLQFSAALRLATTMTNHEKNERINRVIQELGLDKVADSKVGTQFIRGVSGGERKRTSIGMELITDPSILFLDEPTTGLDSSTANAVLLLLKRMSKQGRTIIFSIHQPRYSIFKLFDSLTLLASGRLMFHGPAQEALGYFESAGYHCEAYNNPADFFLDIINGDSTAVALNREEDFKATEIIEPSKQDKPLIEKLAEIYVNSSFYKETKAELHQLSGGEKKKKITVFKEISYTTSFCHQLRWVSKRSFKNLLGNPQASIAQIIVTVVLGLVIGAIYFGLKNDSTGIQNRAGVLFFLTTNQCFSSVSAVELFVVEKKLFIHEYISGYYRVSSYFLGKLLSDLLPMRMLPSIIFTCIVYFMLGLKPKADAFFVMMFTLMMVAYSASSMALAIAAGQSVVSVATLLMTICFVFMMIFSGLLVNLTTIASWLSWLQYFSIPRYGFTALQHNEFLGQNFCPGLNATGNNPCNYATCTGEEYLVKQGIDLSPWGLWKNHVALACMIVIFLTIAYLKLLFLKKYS
Assay: Vi-sensitive ABCG2 ATPase stimulation in High Five insect cell membranes
Assay type: biochemical

SMILES	EC50 [µM]
COc1ccc(C(=O)c2c[nH]c3ccc(OC)cc23)cc1 [compound 8, (5-Methoxy-1H-indol-3-yl)(4-methoxyphenyl)methanone]	0.75
COc1ccc(C(=O)c2ccc3[nH]cc(C(=O)c4ccc(OC)cc4)c3c2OC)cc1 [compound 2, (4-methoxy-1H-indole-3,5-diyl)bis((4-methoxyphenyl)methanone)]	0.21
